Reference: PMC9866339, “In Silico and In Vitro Study of Janus Kinases Inhibitors from Naphthoquinones” (Molecules, 2023)
Where two headings read alike, the source gives them in different places. One block for each molecule: values may come before it.

What was measured:
[1] = test system: HEL cells; assay: Presto Blue cytotoxicity assay on HEL cells; format: cell-based, human; conditions: for Cytotoxicity screening on HEL cells: 10 μM, result in words; for IC50: Homo sapiens, HEL, 72 h, read-out: IC50 against HEL cell viability
[2] = target: T1, JAK2 (Homo sapiens, UniProt O60674); assay: ADP-Glo kinase assay, JAK2; format: biochemical; conditions: 5 μM ATP, read-out: IC50 ± SEM JAK2
T1 construct: purchased Sigma-Aldrich SRP0171
T1 sequence (O60674 808-1132 limits assumed): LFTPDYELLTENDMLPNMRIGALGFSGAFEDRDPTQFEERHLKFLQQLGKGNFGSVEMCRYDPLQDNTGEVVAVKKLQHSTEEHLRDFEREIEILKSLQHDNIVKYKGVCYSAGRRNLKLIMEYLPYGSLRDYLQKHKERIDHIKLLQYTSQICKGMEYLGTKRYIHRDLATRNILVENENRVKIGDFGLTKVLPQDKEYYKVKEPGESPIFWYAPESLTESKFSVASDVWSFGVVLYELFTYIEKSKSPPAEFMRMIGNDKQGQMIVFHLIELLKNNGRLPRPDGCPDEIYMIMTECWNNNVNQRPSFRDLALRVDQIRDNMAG

[3] = test system: TF1 cells; assay: Presto Blue cytotoxicity assay on TF1 cells; format: cell-based, human; conditions: for Cytotoxicity screening on TF1 cells: 10 μM, Presto Blue assay, result in words; for IC50: Homo sapiens, TF-1, 72 h, read-out: IC50 against TF1 cell viability
[4] = test system: TF1 cells; conditions: at IC50, 72 h, dot plot quadrant
[5] = target: T2, JAK3 (Homo sapiens, UniProt P52333); assay: ADP-Glo kinase assay, JAK3; format: biochemical; conditions: 5 μM ATP, read-out: IC50 ± SEM JAK3
T2 construct: purchased Sigma-Aldrich SRP0173
T2 sequence (P52333 781-1124 limits assumed): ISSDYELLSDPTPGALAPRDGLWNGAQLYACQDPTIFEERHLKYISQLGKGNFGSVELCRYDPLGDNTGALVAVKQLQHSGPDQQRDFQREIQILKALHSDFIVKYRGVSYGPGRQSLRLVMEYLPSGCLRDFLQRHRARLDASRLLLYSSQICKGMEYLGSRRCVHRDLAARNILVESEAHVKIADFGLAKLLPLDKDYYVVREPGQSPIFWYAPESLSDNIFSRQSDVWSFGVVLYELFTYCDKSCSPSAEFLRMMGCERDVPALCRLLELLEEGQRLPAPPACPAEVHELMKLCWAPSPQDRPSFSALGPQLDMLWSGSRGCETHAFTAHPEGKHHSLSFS

[6] = test system: TF1 cells; conditions: at IC50, 72 h, dot plot quadrant; remark: listed apart in the source
[7] = test system: JAK1; conditions: read-out: IC50 JAK1; cited from earlier work
[8] = test system: HEL cell; conditions: read-out: IC50 HEL cell growth; cited from earlier work
[9] = test system: human keratinocytes; parameters: method as in PMID 28250347, PMID 22845014; conditions: result in words; cited from earlier work

Compound: CC1=CC(=O)c2ccccc2C1=O [Menadione, menadione]
- Cytotoxicity screening on HEL cells ([1]; Presto Blue assay): high cytotoxicity
- IC50 ([1]; Presto Blue assay, mean ± SEM): 7.99 ± 1.22 µM

- IC50 [2]: 0.0126 ± 0.00212 µM
- IC50 [5]: 0.0148 ± 0.00237 µM
Compound: CC(=O)c1cc2c(o1)C(=O)c1ccccc1C2=O [Napabucasin, napabucasin]
- Cytotoxicity screening on TF1 cells [3]: highly potent cell growth inhibition
- IC50 [3]: 9.57 µM
- Apoptotic cells, caspase 3/7 [4]: 25.85%
- Apoptotic/Dead cells, caspase 3/7 [4]: 18.10%
- Dead cells, caspase 3/7 [4]: 0.30%
- Live cells, caspase 3/7 [4]: 55.75%
- Cytotoxicity screening on HEL cells ([1]; Presto Blue assay): highly potent cell growth inhibition
- IC50 [1]: 3.31 µM
- Dead cells, annexin V [6]: 3.50%
- Early Apop. cells, annexin V [6]: 29.80%
- Late Apop./Dead cells, annexin V [6]: 39.24%

Compound: N#CC[C@H](C1CCCC1)n1cc(-c2ncnc3[nH]ccc23)cn1 [Ruxolitinib, ruxolitinib, reference compound]
- IC50 [3]: 12.2 ± 0.58 µM
- IC50 [1]: 26.04 ± 0.26 µM

Compound: N#Cc1ccc(C2C3=C(CCCC3=O)OC3=C2C(=O)c2ccccc2C3=O)cc1 (stereo not shown) [CM363]
- IC50 [8]: 1.3 µM

Compound: O=C1C=CC(=O)c2c(O)cccc21 [Juglone, juglone]
- IC50 ([1]; Presto Blue assay, mean ± SEM): 8.67 ± 0.17 µM

- IC50 [2]: 0.0111 ± 0.00013 µM
- IC50 [5]: 0.0102 ± 0.00066 µM
Compound: CCC(=O)c1cc2c(o1)C(=O)c1ccccc1C2=O [2′-methyl napabucasin]
- Cytotoxicity screening on TF1 cells [3]: highly potent cell growth inhibition
- IC50 [3]: 18.1 µM
- Apoptotic cells, caspase 3/7 [4]: 13.50%
- Apoptotic/Dead cells, caspase 3/7 [4]: 22.35%
- Dead cells, caspase 3/7 [4]: 0.70%
- Live cells, caspase 3/7 [4]: 63.45%
- Cytotoxicity screening on HEL cells ([1]; Presto Blue assay): highly potent cell growth inhibition
- IC50 [1]: 6.65 µM
- Dead cells, annexin V [6]: 1.10%
- Early Apop. cells, annexin V [6]: 25.42%
- Late Apop./Dead cells, annexin V [6]: 51.16%
- Live cells, annexin V [6]: 22.32%
- Cytotoxicity against human keratinocytes [9]: potent cytotoxicity

Compound: O=C1C=C(O)C(=O)c2ccccc21 [Lawsone, 2-hydroxy-1,4-naphthoquinone]
- Cytotoxicity screening on TF1 cells [3]: inhibited the growth of both cell types poorly
- Cytotoxicity screening on HEL cells ([1]; Presto Blue assay): inhibited the growth of both cell types poorly
